In patent US20250206761A1, “HALOINDOLE MACROCYCLIC COMPOUNDS FOR THE TREATMENT OF CANCER” (Hoffmann-La Roche Inc., priority 2022, published 2025):

Legend:
[1] = tested on: phosphorylation of ERK, KRAS G12V in SW620; experiment: pERK inhibition assay, KRAS G12V; format: cell-based, human; conditions: Homo sapiens, SW-620, SW620, 4 hours
Method in brief: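 Plate cells, attach overnight; add compound (0.5% DMSO) for 4 h; fix in 4% formaldehyde, permeabilize with chilled methanol; block; incubate pERK antibody overnight at 4 °C, then HRP secondary; develop with TMB, stop, read OD450; fit 4-parameter curve for IC50.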

[2] = molecular target: KRAS G12V binding to BRAF (Homo sapiens (Human), UniProt P01116+P62937, G12V); experiment: KRAS-BRAF with CYPA (500 nM) interaction assay (TR-FRET), G12V; format: biochemical
Method in brief: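 A TR-FRET assay measured how compound, in the presence of CYPA, disrupts binding of GMPPNP-loaded 6His-KRAS G12V to BRAF. The buffer contained 25 mM HEPES PH=7.4, 0.002% Tween20, 0.1% BSA, 100 mM NaCl, 5 mM MgCl2 and 10 μM GMPPNP. Compounds ran as a 16-point 3-fold dilution series from 10 μM for 3 hours.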

KRAS G12C-BRAF complex = KRAS G12C-BRAF complex (Homo sapiens (Human), UniProt P01116+P62937, G12C); experiment: KRAS G12C-BRAF NanoBit assay; format: cell-based; conditions: HEK293 cells, 3 hours of incubation
Protocol: This assay is to measure the ability of tested compounds in disruption of the KRAS G12C-BRAF complex at the cellular level, we established the NanoBit cellular assay in mammalian HEK293 (ATCC) cells.
HEK293 cells were grown and maintained using DMEM medium (Thermo Fisher Scientific) with 10% fetal bovine serum and 1% penicillin/streptomycin. Both KRAS G12C and BRAF RBD were cloned into the NanoBit vectors ([…] vectors system, Promega) with the orientations SnmBit-KRAS G12C and BRAF RBD-LgBit, respectively, and co-transfected into HEK293 cells. Cells were then selected with 100 μg/mL Hygromycin B (10687010, Thermo Fisher) and Blasticidin (5 μg/mL) for 4 weeks to get the stable cell pool.
On the day of the assay, 75 nL of compound solution was presented in a 384-well assay plate as a 16-point 3-fold dilution starting from a final concentration of 30 μM in DMSO. Then cells were seeded at 10,000 cells/25 μL/well in a 384-well plate. After 3 hours of incubation, 6 μL of volume of Nano-Glo® Live Cell Substrate (Promega) was added into each well. Monitor luminescence using ultra384 model in Envision at 20 minutes. Compounds that facilitate disruption of the KRAS G12C-BRAF RBD complex were identified as those eliciting a decrease of luminescence relative to DMSO control wells.

[3] = tested on: AGS (ATCC-CRL-1739) cells; experiment: Cell viability assay, G12D (AGS); format: cell-based, human; conditions: Homo sapiens, KRAS cell viability, 72 hrs, Cell Counting Kit-8
Method in brief: (§1)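 Cells were seeded at 5,000 cells/well (NCI-H358) or 2,000 cells/well (AGS, SW620), incubated overnight, then treated with compounds in 0.5% DMSO final for 72 hrs. CCK-8 was added and OD450 minus OD650 read after 2 hrs; IC50 came from a 4-parameter sigmoidal fit.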

[4] = tested on: NCI-H358 (ATCC-CRL5807) cells; experiment: Cell viability assay, G12C (NCI-H358); format: cell-based, human; conditions: Homo sapiens; KRAS cell viability, NCI-H358, 72 hrs, Cell Counting Kit-8
Method in brief: as §1

SW620 (ATCC-CCL-227) = experiment: Cell viability assay, G12V (SW620); format: cell-based, human; conditions: Homo sapiens, SW-620; KRAS cell viability, SW620, 72 hrs, Cell Counting Kit-8
Method in brief: as §1

Chain of KRAS G12C-BRAF complex (P01116-2 other isoform, or with tags, fused parts or gaps G12C): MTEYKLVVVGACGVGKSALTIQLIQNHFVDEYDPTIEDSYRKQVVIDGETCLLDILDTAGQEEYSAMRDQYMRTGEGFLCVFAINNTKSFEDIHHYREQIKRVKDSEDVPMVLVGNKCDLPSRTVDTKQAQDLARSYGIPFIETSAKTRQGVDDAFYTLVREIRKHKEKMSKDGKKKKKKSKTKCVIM
Chain of KRAS G12C-BRAF complex (P62937 whole entry): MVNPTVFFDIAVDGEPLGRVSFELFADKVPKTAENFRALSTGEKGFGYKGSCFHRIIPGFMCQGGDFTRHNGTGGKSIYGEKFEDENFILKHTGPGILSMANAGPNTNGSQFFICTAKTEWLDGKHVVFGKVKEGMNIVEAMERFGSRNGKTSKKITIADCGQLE
Chain of KRAS G12V binding to BRAF (P01116-2 other isoform, or with tags, fused parts or gaps G12V): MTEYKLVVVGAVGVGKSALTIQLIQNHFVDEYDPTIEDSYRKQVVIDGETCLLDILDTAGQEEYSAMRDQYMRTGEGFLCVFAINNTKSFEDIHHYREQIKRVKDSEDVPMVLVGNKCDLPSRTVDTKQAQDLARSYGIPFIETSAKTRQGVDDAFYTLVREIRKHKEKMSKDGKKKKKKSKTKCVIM
Chain of KRAS G12V binding to BRAF (P62937 whole entry): as the sequence (P62937 whole entry) above

Row | SMILES | IC50 [1] | IC50 [2] | IC50 (KRAS G12C-BRAF complex) | IC50 [3] | IC50 [4] | IC50 (SW620 (ATCC-CCL-227))
1 | CCn1c(-c2cc(N3CCOCC3)cnc2[C@H](C)OC)c2c3cc(c(F)cc31)-c1csc(n1)C[C@H](NC(=O)[C@H](C(C)C)N1CCC3(CN(C(=O)[C@H](F)Cl)C3)C1=O)C(=O)N1CCC[C@H](N1)C(=O)OCC(C)(C)C2 (atropisomer, axis not shown; (M)) [Example 52, (2S)-2-[2-[(2R)-2-chloro-2-fluoro-acetyl]-5-oxo-2,6-diazaspiro[3.4]octan-6-yl]-N-[(7S,13S)-21-ethyl-24-fluoro-(20M)-20-[2-[(1S)-1-methoxyethyl]-5-morpholino-3-pyridyl]-17,17-dimethyl-8,14-dioxo-15-oxa-4-thia-9,21,27,28-tetrazapentacyclo[17.5.2.1^2,5.1^9,13.0^22,26]octacosa-1(25),2,5(28),19,22(26),23-hexaen-7-yl]-3-methyl-butanamide] | 0.058 µM | > 10 µM | 0.07 µM | 4.72 µM | < 0.001 µM | 0.196 µM
2 | CC(C)[C@@H](C(=O)N[C@H]1Cc2cc(O)cc(c2)-c2ccc3c(C(C)(C)C#N)cn(c3c2)CC(C)(C)COC(=O)[C@@H]2CCCN(N2)C1=O)N1CCC2(CN(C(=O)CCl)C2)C1=O [RM44, reference compound] | > 10 µM | > 10 µM | 11.7 µM | 6.23 µM | 0.799 µM | > 10 µM
3 | CCn1c(-c2cc(N3CCN(CC(F)(F)F)CC3)cnc2[C@H](C)OC)c2c3cc(c(F)cc31)-c1csc(n1)C[C@H](NC(=O)[C@H](C(C)C)N(C)C(=O)C1(F)CCN(C(=O)[C@H](F)Cl)CC1)C(=O)N1CCC[C@H](N1)C(=O)OCC(C)(C)C2 (atropisomer, axis not shown; (M)) [Example 49, 1-[(2R)-2-chloro-2-fluoro-acetyl]-N-[(1S)-1-[[(7S,13S)-21-ethyl-24-fluoro-(20M)-20-[2-[(1S)-1-methoxyethyl]-5-[4-(2,2,2-trifluoroethyl)piperazin-1-yl]-3-pyridyl]-17,17-dimethyl-8,14-dioxo-15-oxa-4-thia-9,21,27,28-tetrazapentacyclo[17.5.2.1^2,5.1^9,13.0^22,26]octacosa-1(25),2,5(28),19,22(26),23-hexaen-7-yl]carbamoyl]-2-methyl-propyl]-4-fluoro-N-methyl-piperidine-4-carboxamide] | 0.02 µM | 0.577 µM | 0.008 µM | 0.073 µM | < 0.001 µM | 0.042 µM
4 | CO[C@@H](C)c1ncc(N2CCN(C)CC2)cc1-c1c2c3c(F)c(ccc3n1CC(F)(F)F)-c1csc(n1)C[C@H](NC(=O)[C@H](C(C)C)N1CCCC3(CCN(C(=O)[C@H](F)Cl)CC3)C1=O)C(=O)N1CCC[C@H](N1)C(=O)OCC(C)(C)C2 (atropisomer, axis not shown; (M)) [Example 20, (2S)-2-[9-[(2R)-2-chloro-2-fluoro-acetyl]-1-oxo-2,9-diazaspiro[5.5]undecan-2-yl]-N-[(7S,13S)-25-fluoro-(20M)-20-[2-[(1S)-1-methoxyethyl]-5-(4-methylpiperazin-1-yl)-3-pyridyl]-17,17-dimethyl-8,14-dioxo-21-(2,2,2-trifluoroethyl)-15-oxa-4-thia-9,21,27,28-tetrazapentacyclo[17.5.2.1^2,5.1^9,13.0^22,26]octacosa-1(25),2,5(28),19,22(26),23-hexaen-7-yl]-3-methyl-butanamide] | 0.073 µM | 1.78 µM | 0.047 µM | 0.745 µM | 0.003 µM | 0.066 µM
5 | CO[C@@H](C)c1ncc(N2CCN(C)CC2)cc1-c1c2c3cc(c(F)cc3n1CC(F)(F)F)-c1cc(O)cc(c1)C[C@H](NC(=O)[C@H](C(C)C)N(C)C(=O)[C@H]1CCN(C(=O)[C@H](F)Cl)C1)C(=O)N1CCC[C@H](N1)C(=O)OCC(C)(C)C2 (atropisomer, axis not shown; (M)) [Example 8, (3S)-1-[(2R)-2-chloro-2-fluoro-acetyl]-N-[(1S)-1-[[(8S,14S)-25-fluoro-4-hydroxy-(21M)-21-[2-[(1S)-1-methoxyethyl]-5-(4-methylpiperazin-1-yl)-3-pyridyl]-18,18-dimethyl-9,15-dioxo-22-(2,2,2-trifluoroethyl)-16-oxa-10,22,28-triazapentacyclo[18.5.2.1^2,6.1^10,14.0^23,27]nonacosa-1(26),2,4,6(29),20,23(27),24-heptaen-8-yl]carbamoyl]-2-methyl-propyl]-N-methyl-pyrrolidine-3-carboxamide] | 0.127 µM | 0.01 µM | 0.043 µM | 1.56 µM | 0.003 µM | 0.175 µM
6 | CO[C@@H](C)c1ncc(N2CCN(C)CC2)cc1-c1c2c3cc(c(F)cc3n1CC(F)(F)F)-c1csc(n1)C[C@H](NC(=O)[C@H](C(C)C)N1CCC[C@]3(CCN(C(=O)[C@H](F)Cl)C3)C1=O)C(=O)N1CCC[C@H](N1)C(=O)OCC(C)(C)C2 (single isomer, unassigned) [Example 18] | 0.018 µM | 3.33 µM | 0.012 µM | 3.7 µM | 0.001 µM | 0.019 µM
7 | CC(C)[C@@H](C(=O)N[C@H]1Cc2cc(O)cc(c2)-c2ccc3c(C(C)(C)C#N)cn(c3c2)CC(C)(C)COC(=O)[C@@H]2CCCN(N2)C1=O)N1CCCC2(CCN(C(=O)CCl)C2)C1=O (stereo partly drawn) [RM351, reference compound] | > 10 µM | > 10 µM | 1.78 µM | 2.1 µM | – | –
8 | CO[C@@H](C)c1ncc(N2CCN(C)CC2)cc1-c1c2c3cc(c(F)cc3n1CC(F)(F)F)-c1csc(n1)C[C@H](NC(=O)[C@H](C(C)C)N1CCC[C@@]3(CCN(C(=O)[C@H](F)Cl)C3)C1=O)C(=O)N1CCC[C@H](N1)C(=O)OCC(C)(C)C2 (single isomer, unassigned) [Example 16] | 0.015 µM | > 10 µM | 0.008 µM | 2.65 µM | < 0.001 µM | 0.022 µM
9 | CCn1c(-c2cc(N3CCOCC3)cnc2[C@H](C)OC)c2c3cc(c(F)cc31)-c1csc(n1)C[C@H](NC(=O)[C@H](C(C)C)N1CC[C@@]3(CCN(C(=O)[C@H](F)Cl)C3)C1=O)C(=O)N1CCC[C@H](N1)C(=O)OCC(C)(C)C2 (atropisomer, axis not shown; (M)) [Example 53, (2S)-2-[(5R)-7-[(2R)-2-chloro-2-fluoro-acetyl]-1-oxo-2,7-diazaspiro[4.4]nonan-2-yl]-N-[(7S,13S)-21-ethyl-24-fluoro-(20M)-20-[2-[(1S)-1-methoxyethyl]-5-morpholino-3-pyridyl]-17,17-dimethyl-8,14-dioxo-15-oxa-4-thia-9,21,27,28-tetrazapentacyclo[17.5.2.1^2,5.1^9,13.0^22,26]octacosa-1(25),2,5(28),19,22(26),23-hexaen-7-yl]-3-methyl-butanamide] | 0.061 µM | > 10 µM | 0.017 µM | 1.31 µM | < 0.001 µM | 0.932 µM
10 | CCn1c(-c2cc(N3CCN(CC(F)(F)F)CC3)cnc2[C@H](C)OC)c2c3cc(c(F)cc31)-c1csc(n1)C[C@H](NC(=O)[C@H](C(C)C)N1CCC3(CN(C(=O)[C@H](F)Cl)C3)C1=O)C(=O)N1CCC[C@H](N1)C(=O)OCC(C)(C)C2 (atropisomer, axis not shown; (M)) [Example 37, (2S)-2-[2-[(2R)-2-chloro-2-fluoro-acetyl]-5-oxo-2,6-diazaspiro[3.4]octan-6-yl]-N-[(7S,13S)-21-ethyl-24-fluoro-(20M)-20-[2-[(1S)-1-methoxyethyl]-5-[4-(2,2,2-trifluoroethyl)piperazin-1-yl]-3-pyridyl]-17,17-dimethyl-8,14-dioxo-15-oxa-4-thia-9,21,27,28-tetrazapentacyclo[17.5.2.1^2,5.1^9,13.0^22,26]octacosa-1(25),2,5(28),19,22(26),23-hexaen-7-yl]-3-methyl-butanamide] | 0.021 µM | 1.36 µM | – | 0.159 µM | < 0.001 µM | 0.114 µM
